From ChEMBL document CHEMBL4421722, “Inhibitors of protein prenyltransferases” (2013)

Experiments:
[1] = Inhibition of rat recombinant geranylgeranyltransferase type I expressed in Escherichia coli assessed as reduction in geranylgeranylation of RhoA incubated for 30 mins in presence of [3H]GGPP by scintillation counting assay relative to control
Jurkat = assay: Antiproliferative activity against human Jurkat cells assessed as inhibition of cell proliferation incubated for 72 hrs by CCK8 assay; type: functional, cell-based
K562 = assay: Antiproliferative activity against human K562 cells assessed as inhibition of cell proliferation incubated for 72 hrs by CCK8 assay; type: functional, cell-based; conditions: K562, 72 h
Rattus norvegicus [2] = species on record: Rattus norvegicus; assay: Inhibition of rat recombinant geranylgeranyltransferase type I expressed in Escherichia coli assessed as residual enzyme activity for geranylgeranylation of RhoA at 50 uM incubated for 30 mins in presence of [3H]GGPP by scintillation counting assay relative to control
Rattus norvegicus [3] = species on record: Rattus norvegicus; assay: Inhibition of rat recombinant geranylgeranyltransferase type I expressed in Escherichia coli assessed as residual enzyme activity for geranylgeranylation of K-Ras4B at 50 uM incubated for 30 mins in presence of [3H]GGPP by scintillation counting assay relative to control

SMILES | IC50 [1] [nM] | Activity (Rattus norvegicus [2]) [%] | Activity (Rattus norvegicus [3]) [%] | other results
CC(C)(C)[C@@H]1C=C(C(=O)O)[C@H](c2ccc(Cl)c(Cl)c2)N1S(=O)(=O)C(C)(C)C | 4400 |  |  | 
Cc1ccccc1S(=O)(=O)N1[C@@H](c2cccc(Cl)c2)C(C(N)=O)=CC[C@H]1c1ccc(Cl)cc1 | > 20000 |  |  | GI50 (Jurkat): 5360 nM
NC(=O)[C@H](Cc1ccccc1)NC(=O)C1=CC[C@@H](c2cccc(Cl)c2)N(S(=O)(=O)c2ccc(Br)cc2)[C@H]1c1cccc(Cl)c1 | 1300 to 20000 |  |  | GI50 (K562): 7690 to 10300 nM; GI50 (Jurkat): 3570 to 4860 nM
CC(C)C[C@H](NC(=O)C1=CC[C@@H](c2cccc(Cl)c2)N(S(=O)(=O)c2ccc(Br)cc2)[C@H]1c1cccc(Br)c1)C(=O)O | 40 |  |  | 
CCOC(=O)C1=C[C@@H](C(C)(C)C)N(S(=O)(=O)c2ccccc2C)[C@H]1c1ccc(Cl)cc1 |  |  |  | IC50 (K562): > 25000 nM
O=C(O)C1=CC[C@@H](c2cccc(Br)c2)N(S(=O)(=O)c2ccc(F)cc2)[C@H]1c1cccc(Cl)c1 | 212 |  |  | 
Cc1cccc([C@@H]2CC=C(C(=O)O)[C@H](c3cccc(Br)c3)N2S(=O)(=O)c2ccc(Br)cc2)c1 | 330 |  |  | 
O=C(O)C1=CC[C@@H](c2ccc(Br)cc2)N(S(=O)(=O)c2ccc(Br)cc2)[C@H]1c1cccc(Cl)c1 | 398 |  |  | 
NC(=O)[C@H](Cc1ccccc1)NC(=O)C1=CC[C@@H](c2cccc(Br)c2)N(S(=O)(=O)c2ccc(Cl)cc2)[C@H]1c1cccc(Cl)c1 | 300 to 450 |  |  | 
O=C(O)C1=CC[C@@H](c2cccc(Br)c2)N(S(=O)(=O)c2ccc(Br)cc2)[C@H]1c1cccc(Br)c1 | 525 |  |  | 
CC(C)(C)[C@@H]1C=C(C(=O)N[C@@H](Cc2ccccc2)C(N)=O)[C@H](c2ccc(Cl)c(Cl)c2)N1S(=O)(=O)c1ccccc1Br | > 20000 |  |  | 
Cc1ccccc1S(=O)(=O)N1[C@@H](c2ccc(Cl)cc2)C(C(N)=O)=C[C@H]1C(C)(C)C |  |  |  | IC50 (K562): 11000 nM
O=C(O)C1=CC[C@@H](c2cccc(Br)c2)N(S(=O)(=O)c2ccc(Br)cc2)[C@H]1c1cccc(Cl)c1 | 529 |  |  | 
O=C(O)C1=CC[C@@H](c2cccc(Cl)c2)N(S(=O)(=O)c2ccc(Cl)cc2)[C@H]1c1cccc(Cl)c1 | 241 |  |  | 
O=C(O)C1=CC[C@@H](c2cccc(Cl)c2)N(S(=O)(=O)c2ccc(Br)cc2)[C@H]1c1cccc(Br)c1 | 155 to 169 |  |  | 
COC(=O)[C@H](CC(C)C)NC(=O)C1=CC[C@@H](c2ccc(Cl)cc2)N(S(=O)(=O)c2ccccc2C)[C@H]1c1cccc(Cl)c1 | 20000 to 50000 |  |  | GI50 (Jurkat): 3530 to 6100 nM
O=C(O)C1=CC[C@@H](c2cccc(Br)c2)N(S(=O)(=O)c2ccc(Cl)cc2)[C@H]1c1cccc(Cl)c1 | 125 to 154 |  |  | 
Cc1cccc([C@H]2C(C(=O)O)=CC[C@@H](c3cccc(Br)c3)N2S(=O)(=O)c2ccc(Cl)cc2)c1 | 256 |  |  | 
O=C(O)C1=CC[C@@H](c2cccc(Br)c2)N(S(=O)(=O)c2ccc(Cl)cc2)[C@H]1c1cccc(F)c1 | 841 |  |  | 
CC(C)(C)[C@@H]1C=C(C(=O)O)[C@H](c2ccc(Cl)c(Cl)c2)N1S(=O)(=O)c1c(Cl)cccc1Cl | 4400 |  |  | 

SMILES | IC50 [1] [nM] | Activity (Rattus norvegicus [2]) [%] | Activity (Rattus norvegicus [3]) [%] | other results
O=C(O)C1=CC[C@@H](c2cccc(Cl)c2)N(S(=O)(=O)c2ccc(Br)cc2)[C@H]1c1cccc(Cl)c1 | 86 to 87.1 |  |  | 
O=C(O)C1=CC[C@@H](c2ccc(Cl)c(Cl)c2)N(S(=O)(=O)c2ccc(Cl)cc2)[C@H]1c1cccc(Cl)c1 | 310 |  |  | 
CC(C)C[C@H](NC(=O)C1=CC[C@@H](c2cccc(Cl)c2)N(S(=O)(=O)c2ccc(Br)cc2)[C@H]1c1cccc(Cl)c1)C(N)=O | > 20000 |  |  | 
CC[C@@H]1[C@@H](Sc2ccc(OC)cc2)[C@@H](C(=O)O)[C@H](c2cccc(Cl)c2)N1S(=O)(=O)c1ccc(C)cc1 |  | 6.5 | 25.5 | 
Cc1ccc(S(=O)(=O)N2C[C@@H](C(=O)O)[C@H](Sc3ccccc3)C[C@H]2c2cccc(Cl)c2)cc1 |  | 8.3 | 87.5 | 
CCCCS[C@@H]1C[C@@H](c2ccc(C)cc2)N(S(=O)(=O)c2ccccc2C)C[C@H]1C(=O)O |  | 19.8 | 43.5 to 43.7 | 
C=CCS[C@H]1[C@@H](C(=O)O)[C@H](c2ccc(Cl)c(Cl)c2)N(S(=O)(=O)c2ccc(C)cc2)[C@@H]1CC1CCCC1 |  | 8.6 | 12.1 | 
Cc1cccc([C@H]2C(C(=O)O)=CC[C@@H](c3ccc(Cl)cc3)N2S(=O)(=O)c2ccccc2C)c1 |  | 12.4 | 15.6 to 81.1 | 
Cc1ccc(S(=O)(=O)N2[C@@H](c3cccc(C)c3)C(C(=O)O)=CC[C@H]2c2cccc(Br)c2)cc1 |  | 14.3 | 16.1 to 31.9 | 
COc1ccc([C@@H]2C[C@@H](SCc3ccc(Cl)cc3)[C@H](C(=O)O)CN2S(=O)(=O)c2ccc(Cl)cc2)cc1 |  | 8.5 | 20.8 to 27.1 | 
COc1ccc([C@@H]2C[C@@H](Sc3ccccc3)[C@H](C(=O)O)CN2S(=O)(=O)c2ccc(Cl)cc2)cc1 |  | 11.9 | 97.2 | 
CCC[C@@H]1[C@@H](SCCC(=O)OC(C)(C)C)[C@@H](C(=O)O)[C@H](c2cccc(F)c2)N1S(=O)(=O)c1ccc(C)cc1 |  | 7.8 | 20.2 | 
Cc1ccc(S(=O)(=O)N2C(c3ccc(Cl)c(Cl)c3)CC=C(C(=O)O)C2c2cccc(Cl)c2)cc1 (stereo not drawn) |  | 4.5 | 10.7 to 26 | 
O=C(O)C1=CC[C@@H](c2ccc(Cl)cc2)N(S(=O)(=O)c2ccc(Cl)cc2)[C@H]1c1cccc(Br)c1 |  | 5 | 8.6 to 17.3 | 
C=CCS[C@H]1[C@@H](C(=O)O)[C@H](c2ccc(Br)cc2)N(S(=O)(=O)c2ccc(C)cc2)[C@@H]1CCC |  | 7.5 | 9.8 | 
Cc1ccc([C@@H]2C[C@@H](SCc3ccc(Cl)cc3)[C@H](C(=O)O)CN2S(=O)(=O)c2ccccc2)cc1 |  | 17.2 | 22 to 29.6 | 
NC(=O)[C@H](Cc1ccccc1)NC(=O)C1=CC[C@@H](c2cccc(Cl)c2)N(S(=O)(=O)c2ccc(Br)cc2)[C@H]1c1cccc(Br)c1 | > 20000 |  |  | 
C=CCS[C@H]1[C@@H](C(=O)O)[C@H](c2ccc(C#N)cc2)N(S(=O)(=O)c2ccc(C)cc2)[C@@H]1CCCCCC |  | 6 | 21.5 | 
O=C(N[C@@H](Cc1ccccc1)C(=O)O)C1=CC[C@@H](c2cccc(Cl)c2)N(S(=O)(=O)c2ccc(Br)cc2)[C@H]1c1cccc(Br)c1 | 32 |  |  | 
Cc1ccc(S(=O)(=O)N2[C@@H](c3ccccc3)C(C(=O)O)=CC[C@H]2c2cccc(Br)c2)cc1 |  | 19.4 | 35.2 | 

SMILES | IC50 [1] [nM] | Activity (Rattus norvegicus [2]) [%] | Activity (Rattus norvegicus [3]) [%] | other results
Cc1ccc(S(=O)(=O)N2C[C@@H](C(=O)O)[C@H](SCc3ccccc3)C[C@H]2c2ccccc2F)cc1 |  | 8.1 | 12.8 to 15.7 | 
CCCC[C@@H]1[C@@H](Sc2ccc(C)cc2)[C@@H](C(=O)O)[C@H](c2cccc(F)c2)N1S(=O)(=O)c1ccc(C)cc1 |  | 7.1 | 31.5 | 
Cc1ccc([C@@H]2C[C@@H](SCCc3ccccc3)[C@H](C(=O)O)CN2S(=O)(=O)c2ccc(Cl)cc2)cc1 |  | 9.5 | 22.7 to 27 | 
CCCCCC[C@@H]1[C@@H](Sc2ccc(C)cc2)[C@@H](C(=O)O)[C@H](c2ccc(Cl)cc2)N1S(=O)(=O)c1ccccc1 |  | 7.5 | 15 | 
C=CCS[C@H]1[C@@H](C(=O)O)[C@H](c2ccc(Cl)cc2)N(S(=O)(=O)c2ccc(C)cc2)[C@@H]1CC1CCCC1 |  | 7.7 | 25.2 | 
Cc1ccc(S(=O)(=O)N2C[C@@H](C(=O)O)[C@H](SCc3ccc(Cl)cc3)C[C@H]2c2cccc(Br)c2)cc1 |  | 3.2 | 7.8 to 8 | 
C=CCS[C@H]1[C@@H](C(=O)O)[C@H](c2ccc(Cl)cc2)N(S(=O)(=O)c2ccccc2C)[C@@H]1CC1CCCC1 |  | 4.9 | 22.4 | 
CCCCCC[C@@H]1[C@@H](Sc2ccc(C)cc2)[C@@H](C(=O)O)[C@H](c2ccc(Cl)c(Cl)c2)N1S(=O)(=O)c1ccc(C)cc1 |  | 9.2 | 21.3 | 
Cc1ccccc1S(=O)(=O)N1C[C@@H](C(=O)O)[C@H](SCCc2ccccc2)C[C@H]1c1ccc(Cl)cc1 |  | 4.1 | 11.2 to 12.6 | 
CC(C)(C)[C@@H]1C=C(C(=O)N[C@@H](Cc2ccccc2)C(N)=O)[C@H](c2ccc(Cl)c(Cl)c2)N1S(=O)(=O)c1c(Cl)cccc1Cl | > 50000 |  |  | GI50 (Jurkat): 4910 to 5280 nM
CCCCCC[C@@H]1[C@@H](SC2CCCC2)[C@@H](C(=O)O)[C@H](c2ccc(C#N)cc2)N1S(=O)(=O)c1ccc(C)cc1 |  | 7.4 | 20.1 | 
COc1ccc([C@@H]2C[C@@H](Sc3ccc(Cl)cc3)[C@H](C(=O)O)CN2S(=O)(=O)c2ccc(Cl)cc2)cc1 |  | 8.6 | 73.2 | 
Cc1ccc([C@@H]2C[C@@H](SCc3ccc(Cl)cc3)[C@H](C(=O)O)CN2S(=O)(=O)c2ccc(Cl)cc2)cc1 |  | 3.3 | 30.8 to 31.6 | 
CC[C@@H]1[C@@H](SCCC(=O)OC(C)(C)C)[C@@H](C(=O)O)[C@H](c2ccc(Cl)c(Cl)c2)N1S(=O)(=O)c1ccc(C)cc1 |  | 7.6 | 27.2 | 
C=CCS[C@H]1[C@@H](C(=O)O)[C@H](c2ccc(Cl)cc2)N(S(=O)(=O)c2ccccc2C)[C@@H]1CCCCCC |  | 6 | 24.9 | 
C=CCS[C@@H]1C[C@@H](c2cccc(Br)c2)N(S(=O)(=O)c2ccc(C)cc2)C[C@H]1C(=O)O |  | 13.6 | 29.2 to 83.6 | 
Cc1ccc(S(=O)(=O)N2C[C@@H](C(=O)O)[C@H](SCCc3ccccc3)C[C@H]2c2ccc(Cl)cc2)cc1 |  | 5.9 | 15.1 to 20.8 | 
Cc1ccccc1S(=O)(=O)N1[C@@H](c2ccccc2)C(C(=O)O)=CC[C@H]1c1ccc(Cl)cc1 |  | 5.8 | 13.4 | 
NC(=O)[C@H](Cc1ccccc1)NC(=O)C1=CC[C@@H](c2cccc(Cl)c2)N(S(=O)(=O)c2ccc(Cl)cc2)[C@H]1c1cccc(Cl)c1 | 600 |  |  | 
Cc1ccc(S(=O)(=O)N2[C@@H](c3cccc(F)c3)C(C(=O)O)=CC[C@H]2c2cccc(Br)c2)cc1 |  | 15 | 17 to 85.6 | 
